We go through 23 molecules from US20080090805A1, “CB-1 MODULATING COMPOUNDS AND THEIR USE” (ACADIA PHARMACEUTICALS INC., priority 2005, published 2008).

One experiment concerns NSA mice. Kind of experiment: Hypothermia study (block of CP 55,940-induced hypothermia). Type of experiment: in vivo. Also on record: Hypothermia 3 mg/kg / Hypothermia 0.3 mg/kg: unit not given here. As to conditions: for Hypothermia ID50: block of CP 55,940-induced hypothermia. The protocol: . […] Core body temperatures were then obtained at various time points following CP 55,940 administration. Core body temperature (to the nearest 0.1° C.) was obtained by rectal probe.

A further experiment addresses native CB1 receptors (Rattus norvegicus, UniProt P20272). In words: CB1 receptor rat binding assay ([3H]SR141716A, rat brain membranes). As to conditions: rat brain membranes, [3H]SR141716A; for Ki: read-out: Binding rat pKi (converted).

Chain of native CB1 receptors (P20272 whole entry): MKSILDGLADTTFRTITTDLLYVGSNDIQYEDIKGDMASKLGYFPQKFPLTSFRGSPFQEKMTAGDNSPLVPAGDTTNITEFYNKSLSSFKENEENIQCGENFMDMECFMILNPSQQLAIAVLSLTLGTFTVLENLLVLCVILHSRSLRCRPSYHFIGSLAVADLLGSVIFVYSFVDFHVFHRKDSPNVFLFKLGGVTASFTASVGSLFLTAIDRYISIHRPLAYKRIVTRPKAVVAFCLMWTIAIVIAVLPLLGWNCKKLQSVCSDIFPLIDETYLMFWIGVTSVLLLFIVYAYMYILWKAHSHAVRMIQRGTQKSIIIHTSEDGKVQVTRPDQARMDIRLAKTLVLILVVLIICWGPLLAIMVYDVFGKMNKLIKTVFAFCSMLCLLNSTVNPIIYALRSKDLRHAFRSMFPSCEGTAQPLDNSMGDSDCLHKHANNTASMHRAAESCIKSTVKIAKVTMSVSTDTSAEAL

As for `CCCCNC(=O)c1ccc2c(c1)N=C(c1ccc(F)c(Cl)c1)c1ccccc1S2`, the “Hypothermia 3 mg/kg” value with NSA mice stood at 94.
The same measure, in the same setting: then `CCCCNC(=O)C1=C/C=C/Sc2cc(F)ccc2/C(c2ccc(Cl)cn2)=N\C=C\1`, with 4.
As for `CCCCNC(=O)c1ccc2c(c1)N=C(c1ccc(OC)cc1)c1ccccc1S2` [drawing 1532], at native CB1 receptors, the “Binding rat Inh %” value is 82% and the Ki was 0.01 µM.
With `O=C(NCCCc1ccccc1)c1ccc2c(c1)N=C(N1CCCCC1)c1ccccc1S2` [drawing 1533], the Ki at native CB1 receptors was 0.01 µM.
For the molecule `CCCCNC(=O)c1cnc2c(n1)N=C(c1ccccc1)c1ccccc1S2` [drawing 1534], at native CB1 receptors, the “Binding rat Inh %” value amounted to 88% and the Ki is 0.0126 µM.
Take `COc1ccc(C2=Nc3cc(C(=O)NNC(=O)c4ccccc4)ccc3Sc3ccccc32)cc1` [drawing 1535]: at native CB1 receptors, the “Binding rat Inh %” value is given as 68% and the Ki is 0.0794 µM.
Regarding `CCCC1=Nc2cc(C(=O)NCCc3ccc(OC)cc3OC)ccc2Sc2ccccc21` [drawing 1536], on native CB1 receptors, the Ki was 0.0794 µM.
Turning to `O=C(NC1CCCCC1)c1ccc2c(c1)N=C(c1ccccn1)c1ccccc1S2` [drawing 1537], at native CB1 receptors, the “Binding rat Inh %” value was determined as 77% and the Ki is 0.1 µM.
In the same order, the values of `N#Cc1ccc(C2=Nc3cc(C(=O)NNCc4ccccc4)ccc3Sc3ccccc32)cc1` [drawing 1538] are 65% and 0.1 µM.
On the same counts, the results for `O=C(NC1CCCCC1)c1ccc2c(c1)N=C(c1ccccc1F)c1ccccc1S2` [drawing 1539] are 83% and 0.0126 µM.
In the same order, the values of `O=C(NCCc1ccncc1)c1ccc2c(c1)N=C(c1ccc(Cl)s1)c1ccccc1S2` [drawing 1540] are 109% and 0.0126 µM.
`O=C(NCc1cccnc1)c1ccc2c(c1)N=C(c1ccc(F)cc1)c1ccccc1S2` [drawing 1541]: on native CB1 receptors, the “Binding rat Inh %” value stood at 97% and the Ki was 0.0126 µM.
On the same counts, the results for `O=C(NC1CCCC1)c1ccc2c(c1)N=C(c1ccc(Cl)s1)c1ccccc1S2` [drawing 1542] are 91% and 0.0126 µM.
On the same counts, the results for `CCOCCNC(=O)c1ccc2c(c1)N=C(c1ccc(C#N)cc1)c1ccccc1S2` [drawing 1543] are 64% and 0.1 µM.
On to `O=C(c1ccc2c(c1)N=C(c1ccc(F)cc1)c1ccccc1S2)N1CCCCC1` [drawing 1544], for which the Ki at native CB1 receptors is 0.1 µM.
For `Cc1ccc(N2CCN(C(=O)c3ccc4c(c3)N=C(c3ccc(Cl)cc3)c3ccccc3S4)CC2)c(C)c1` [drawing 1546], the Ki on native CB1 receptors is 0.1 µM.
In the case of `O=C(NC1CCCC1)c1ccc2c(c1)N=C(c1cccc(Cl)c1)c1ccccc1S2` [drawing 1547], at native CB1 receptors, the “Binding rat Inh %” value turned out to be 84% and the Ki is 0.0126 µM.
Take `CCOC(=O)N1CCC(NC(=O)c2ccc3c(c2)N=C(c2ccc(Cl)cc2)c2ccccc2S3)CC1` [drawing 1548]: the Ki at native CB1 receptors is 0.0126 µM.
The same measure, in the same setting: then `CCCC1=Nc2cc(C(=O)NCCc3cc(OC)ccc3OC)ccc2Sc2ccccc21` [drawing 1549], with 0.1 µM.
For `COc1ccc(C2=Nc3cc(C(=O)NC(C)C)ccc3Sc3ccccc32)cc1` [drawing 1550], at native CB1 receptors, the “Binding rat Inh %” value worked out at 79% and the Ki was 0.1 µM.
On to `O=C(NCc1ccc(Cl)cc1Cl)c1ccc2c(c1)N=C(c1ccccc1F)c1ccccc1S2` [drawing 1551], for which the Ki at native CB1 receptors is 0.1 µM.
For `O=C(NCCCC(F)(F)F)c1ccc2c(c1)N=C(c1ccc(Cl)cc1F)c1ccccc1S2` [drawing 1552], in the experiment on NSA mice, the “Hypothermia 0.3 mg/kg” value was 24, the “Hypothermia 3 mg/kg” value is 55 and the Hypothermia ID50 stood at 1.3 mg/kg.
As to `O=C(NCc1ccco1)c1ccc2c(c1)N=C(c1ccc(F)cc1)c1ccccc1S2` [drawing 1553], in the experiment with NSA mice, the “Hypothermia 0.3 mg/kg” value is listed as −11, the “Hypothermia 3 mg/kg” value is on record as 90 and the Hypothermia ID50 was determined as 1.2 mg/kg.
